From paper PMC7508162 (Frontiers in Pharmacology, 2020)

Tests used:
human CD38 = target: T1, human CD38 (Homo sapiens, UniProt P28907); assay: CD38 assay; format: biochemical; conditions: analogous to NPP3 and NPP5 assays; for Ki: read-out: Ki ± SEM
T1 construct: the catalytic domains of the enzymes were amplified and sub-cloned into the expression vector pACGP67 A/B; 9xHis (C); made in house; host or cells: Sf9 insect cells (baculovirus, pACGP67 A/B)
T1 sequence (P28907 43-300 limits assumed): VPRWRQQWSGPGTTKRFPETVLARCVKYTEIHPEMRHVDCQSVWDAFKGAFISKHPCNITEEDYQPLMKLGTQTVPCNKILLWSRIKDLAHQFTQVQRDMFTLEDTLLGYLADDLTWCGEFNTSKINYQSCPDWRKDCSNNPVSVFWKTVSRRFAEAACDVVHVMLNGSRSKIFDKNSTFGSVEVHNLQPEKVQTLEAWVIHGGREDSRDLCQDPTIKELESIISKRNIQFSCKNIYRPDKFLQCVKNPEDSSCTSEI
From the text: The cDNAs of the human enzymes NPP1, NPP3, NPP5, CD38 and CD73 (Genbank accession no. NM_006258, NM_005021, NM_021572, NM_ 001775, and NM_002526, respectively) were obtained from Origene (Rockville, USA). Soluble enzymes were produced as previously reported with some modifications ([Lee et al., 2015]; [Junker et al., 2019]). Briefly, the catalytic domains of the enzymes were amplified and sub-cloned into the expression vector pACGP67 A/B modified with the addition of 9 x histidine tag (His-tag) at the C-terminus (except for NPP1). The plasmids were transfected in Sf9 insect cells using Cellfectin™ II Reagent (Thermo Fisher Scientific, MA, USA) and ProEasy™ baculovirus linearized DNA (Cat.#A10S, AB Vector, LLC). Protein expression was conducted for 48 h at 27°C. The signal peptide sequence of the expression vector shuttled the proteins into the supernatant. The supernatant medium was collected, and the enzymes were purified using HisPur™ Ni^2+-NTA spin columns according to the manufacturer’s protocol. The protein concentration was determined by the method previously described by [Lowry et al. (1951)].
The assay operation was analogous to the NPP3 and NPP5 assays. The enzymatic reactions were performed in 10 mM HEPES reaction buffer (pH 7.2) using 8 ng of human CD38 (expressed in Sf9 insect cells) in analogy to a published procedure ([Blacher et al., 2015]).

NTPDase3 = target: T2, NTPDase3 (Homo sapiens, UniProt O75355); assay: Malachite green assay for NTPDase3; format: biochemical; set-up: expressed in transfected cells; host or cells: COS-7 cell membrane preparations; conditions: ATP 50 µM, recombinant COS-7 cell membrane preparation, read-out: Ki ± SEM
T2 sequence (O75355 1-529): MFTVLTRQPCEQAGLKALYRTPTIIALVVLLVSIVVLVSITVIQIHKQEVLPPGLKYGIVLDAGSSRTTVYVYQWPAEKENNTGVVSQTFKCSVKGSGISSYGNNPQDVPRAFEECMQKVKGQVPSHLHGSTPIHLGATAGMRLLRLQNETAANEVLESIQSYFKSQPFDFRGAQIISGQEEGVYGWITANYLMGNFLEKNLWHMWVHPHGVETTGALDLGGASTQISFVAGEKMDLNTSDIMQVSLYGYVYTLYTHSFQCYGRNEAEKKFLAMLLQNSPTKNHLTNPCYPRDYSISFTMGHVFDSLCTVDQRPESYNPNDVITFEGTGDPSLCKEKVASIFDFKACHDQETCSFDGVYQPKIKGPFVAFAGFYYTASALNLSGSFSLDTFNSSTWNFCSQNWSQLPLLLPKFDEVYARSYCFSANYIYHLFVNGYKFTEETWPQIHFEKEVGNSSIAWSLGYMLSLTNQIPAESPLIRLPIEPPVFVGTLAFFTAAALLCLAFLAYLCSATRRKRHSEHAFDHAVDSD
Method: The enzymatic activity assay was determined essentially as previously described ([Cogan et al., 1999]) with a few adaptations. The reaction buffer contained 10 mM HEPES, 2 mM CaCl2, 1 mM MgCl2, pH 7.4 in a final volume of 50 μl in transparent 96-well half area plates. For CD39 (NTPDase1), we made use of human umbilical cord membranes preparations which express high levels of the enzyme. For the other human NTPDase isoenzymes, we had to resort to recombinant expression. Human umbilical cord membrane preparations (250 ng) natively expressing high amounts of CD39, or the respective recombinant COS-7 cell membrane preparations expressing the appropriate NTPDase isoenzyme (ca. 100 ng of protein depending on enzyme activity) ([Sévigny et al., 1997]; [Lecka et al., 2013]) with or without inhibitor were preincubated at 37°C and gentle shaking (Eppendorf Thermomixer comfort at 500 rpm) for 5 min. The amount of enzyme preparation was adjusted to ensure 10–20% of substrate conversion. […] ([Kukulski et al., 2005]). After 15 min of incubation at 37°C with gentle shaking, the reaction was stopped by adding the detection reagents (20 µl malachite green solution, 0.6 mM, and 30 µl ammonium molybdate solution, 20 mM, in sulfuric acid, 1.5 M). The released (inorganic) phosphate was quantified after 20 min of gentle shaking at 25°C by measuring the absorption of the malachite green-phosphomolybdate complex at 600 nm using a BMG PheraStar FS plate reader (BMG Labtech GmbH, Ortenberg, Germany). The corrected absorption was calculated by subtracting the absorption of the negative control samples, which were incubated with denatured enzyme (90°C, 15 min), and the inhibition was calculated as follows:
% Inhibition=(B−T)/B*100% […]
Full concentration-inhibition curves were determined with inhibitor concentrations ranging from 0.1 to 300 µM in the presence of 2% DMSO. Three independent experiments were performed (n = 3) and curves were calculated by the GraphPad Prism 8 software. The Ki value was calculated using the Cheng-Prusoff equation for competitive inhibitors: […]

[1] = Chemical stability of stock solutions by LC/ESI-MS analysis; format: physicochemical
Method: To ensure that degradation was caused by microsomal enzymes and not due to chemical instability, stock solutions were analyzed by LC/ESI-MS analysis, and were in all cases found to be stable. […] Nevertheless, they represent useful tool compounds for in vitro studies.

P2 receptors = test system: P2 receptors; set-up: method as in Robson et al., 2006; conditions: ref Robson et al., 2006; cited from earlier work

Structure (SMILES) | % inhibition (human CD38) [%] | Ki (human CD38) [µM] | Ki (NTPDase3) [µM] | stability of stock solutions [1] | effect on P2 receptors (P2 receptors)
CCCCNc1nc2c(NC)ncnc2n1[C@@H]1O[C@H](COP(=O)(O)OP(=O)(O)C(Br)(Br)P(=O)(O)O)[C@@H](O)[C@H]1O [Compound 33, (Dibromo((((((2R,3S,4R,5R)-5-(8-(butylamino)-6-(methylamino)-9H-purin-9-yl)-3,4-dihydroxy-tetrahydrofuran-2-yl)methoxy)(hydroxy)phosphoryl)oxy)-(hydroxy)phosphoryl)methyl)-phosphonic Acid] | 6 | > 10 | 7.8 ± 1.34 | stable | 
CCCCSc1nc2c(N)ncnc2n1[C@@H]1O[C@H](COP(=O)(O)OP(=O)(O)C(Br)(Br)P(=O)(O)O)[C@@H](O)[C@H]1O [Compound 31, (((((((2R,3S,4R,5R)-5-(6-Amino-8-(butylthio)-9H-purin-9-yl)-3,4-dihydroxytetrahydrofuran-2-yl)methoxy)(hydroxy)-phosphoryl)oxy)(hydroxy)phosphoryl)dibromomethyl)-phosphonic Acid] | 7 | > 10 | 1.54 ± 0.34 | stable | 
CCN(CC)c1ncnc2c1ncn2[C@@H]1O[C@H](COP(=O)(O)OP(=O)(O)C(Br)(Br)P(=O)(O)O)[C@@H](O)[C@H]1O [ARL67156, (Dibromo((((((2R,3S,4R,5R)-5-(6-(diethylamino)-9H-purin-9-yl)-3,4-dihydroxytetrahydrofuran-2-yl)methoxy)-(hydroxy)-phosphoryl)oxy)(hydroxy)phosphoryl)methyl)-phosphonic Acid, reference compound] | 0 | > 10 | 7.94 ± 1.36 | stable | no significant effect
